Results: PubChem BioAssay (NCI)
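Assay format: 96-well plates, 48-hour exposure. TGI is the concentration that stops growth completely.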 Where a SMILES comes first, the peptide text is derived from it. [ ]: non-standard residue; d: D form. The star is where a group is joined. ξ: configuration not given here. NMeF = CN[C@@H](Cc1ccccc1)C(=O)O; ξNMeV = CNC(C(=O)O)C(C)C; Boc = CC(C)(C)OC(=O)*; OBn = c1ccc(CO*)cc1

Legend:
Test in all cases: growth of human tumour cells (NCI), 48 h
SNB-19 CNS = test system: SNB-19 CNS
ACHN renal = test system: ACHN renal
SK-OV-3 ovarian = test system: SK-OV-3 ovarian
HOP-92 NSCLC = test system: HOP-92 NSCLC
HT29 colon = test system: HT29 colon
UACC-62 melanoma = test system: UACC-62 melanoma
OVCAR-8 ovarian = test system: OVCAR-8 ovarian
NCI-H23 lung = test system: NCI-H23 lung
HOP-62 NSCLC = test system: HOP-62 NSCLC
SF-539 CNS = test system: SF-539 CNS
SF-268 CNS = test system: SF-268 CNS
RXF 393 renal = test system: RXF 393 renal
K-562 leukemia = test system: K-562 leukemia
MCF7 breast = test system: MCF7 breast
HS 578T breast = test system: HS 578T breast
TK-10 renal = test system: TK-10 renal

Compound | TGI (SNB-19 CNS) [µM] | TGI (ACHN renal) [µM] | TGI (SK-OV-3 ovarian) [µM] | TGI (HOP-92 NSCLC) [µM] | TGI (HT29 colon) [µM] | TGI (UACC-62 melanoma) [µM] | TGI (OVCAR-8 ovarian) [µM] | TGI (NCI-H23 lung) [µM] | TGI (HOP-62 NSCLC) [µM] | TGI (SF-539 CNS) [µM] | TGI (SF-268 CNS) [µM] | TGI (RXF 393 renal) [µM] | TGI (K-562 leukemia) [µM] | TGI (MCF7 breast) [µM] | TGI (HS 578T breast) [µM] | TGI (TK-10 renal) [µM]
CC(=O)OC1CC2(c3ccccc3)C(=O)c3ccccc3N2O1 (stereo unspecified) | > 100 | > 100 | > 100 | > 100 | > 100 | > 100 | > 100 | > 100 | > 100 | > 100 | > 100 | > 100 | > 100 | – | – | –
O=C1c2nn(-c3ccccc3)nc2C(c2ccccc2)N1c1ccccc1 (stereo unspecified) | > 100 | > 100 | – | – | > 100 | > 100 | > 100 | > 100 | 96.6 | > 100 | > 100 | – | > 100 | – | – | –
COP1(=O)NCc2ncccc2O1 (stereo unspecified) | > 100 | > 100 | – | > 100 | > 100 | > 100 | > 100 | > 100 | > 100 | > 100 | – | > 100 | > 100 | > 100 | – | –
O=P1(Oc2ccc(Cl)cc2)OCCS1 (stereo unspecified) | > 100 | > 100 | > 100 | > 100 | > 100 | > 100 | > 100 | > 100 | > 100 | > 100 | > 100 | > 100 | – | – | > 100 | > 100
O=C(/C=C(\Nc1ccccc1O)c1ccccc1)C(=O)NC12CC3CC(CC(C3)C1)C2 | – | > 10 | > 10 | – | 5.87 | – | > 10 | > 10 | > 10 | > 10 | > 10 | > 10 | > 10 | > 10 | > 10 | > 10
CC(C)C(C(=O)N1CCC[C@@H]1C(=O)OCc1ccccc1)N(C)C(=O)C(C(C)C)N(C)C(=O)[C@H](Cc1ccccc1)N(C)C(=O)[C@H](NC(=O)OC(C)(C)C)C(C)C (stereo partly specified) (Boc-[dV][NMeF][ξNMeV][ξNMeV][dP]-OBn) | > 100 | > 100 | > 100 | > 100 | > 100 | > 100 | > 100 | > 100 | > 100 | > 100 | > 100 | > 100 | > 100 | – | – | > 100
Cc1ccc2c(=O)c(-c3nnc(N)s3)c[nH]c2n1 | > 100 | > 100 | – | – | > 100 | > 100 | > 100 | > 100 | > 100 | – | > 100 | > 100 | > 100 | > 100 | > 100 | > 100
CCn1c(=O)ccc2ccc(N(CCO)CCO)nc21 | > 100 | > 100 | > 100 | – | > 100 | > 100 | > 100 | > 100 | > 100 | – | > 100 | > 100 | > 100 | > 100 | > 100 | > 100
O=C1C2CCC(C2)C12CC1(c3ccccc3)C(=O)c3ccccc3N1O2 (stereo unspecified) | > 100 | > 100 | > 100 | > 100 | > 100 | > 100 | > 100 | > 100 | > 100 | > 100 | > 100 | > 100 | > 100 | – | – | –
